From article PMC6440464 (PeerJ, 2019)
Like-named read-outs stand apart in the source and are kept apart here.

Tests used:
[1] = Pharmacokinetics study after separate oral administration in rats (HPLC-MS of plasma); format: in vivo, Sprague-Dawley rats; conditions: for AUC(0-t) / MRT last / Tmax / CL/F / Cmax / half-life: po; for Tmax: read-out: Tmax (converted); for CL/F: read-out: CLz/F; for Cmax: read-out: Cmax; for half-life: read-out: t1/2z
Method: A total of 15 SPF Sprague-Dawley rats (SD, male, 190–210 g) were provided by Sino-British Sippr/BK Lab Animal Company Ltd. (Shanghai, China). The rats were kept in standard conditions (22–26 °C; 40–60% relative humidity; 12 h light/dark cycle). Throughout the rearing period, the animals had access to food and water ad libitum. Animal experiments were conducted in accordance with the standard ethical guidelines of the Laboratory Animal Management Committee of Jiangsu Province (SYXK (SU) 2016-0011).
Following 1 week of adaptation, the rats were fasted for about 12 h before dosing, with free access to water. […] After administration of the first dose, blood samples were taken from the retro-orbital vein at 0, 5, 15, 30, 60, 90, 120, 180, 240, 360, 480, and 1,440 min and collected in heparinized tubes. The samples were centrifuged at 3,500 rpm for 10 min at 4 °C and the plasma was stored at −80 °C until analysis.
An Agilent 1,200 series HPLC system (Agilent Technologies, Waldbronn, Germany) equipped with a quaternary pump on-line degasser, auto-sampler and column oven, and an SL G1946D quadruple mass spectrometer (Agilent Technologies, Santa Clara, CA, USA) equipped with an electrospray ionization (ESI) source, were used for separation and detection. Data were acquired and analyzed using Agilent ChemStation Software Version A.01.00 (Agilent Technologies, Santa Clara, CA, USA).
The separation was carried out with an Amethyst C18-H column (150 × 4.6 mm, 5 μm, Sepax Technologies, Newark, DE, USA) with a guard column SB-C18 (10 × 4.6 mm, 5 μm, Phenomenex Technologies, Torrance, USA) at a constant temperature of 25 °C.
The mass spectra were acquired using ESI interfaced to a single quadrupole mass spectrometer. The ionization conditions were as follows: drying gas (N2) flow rate of 11 L/min, drying gas temperature of 350 °C, nebulizing gas (N2) pressure of 35 psi, capillary voltage of 3,500 V, quad temperature of 100 °C, and fragment voltage of 110 V. A series of m/z were monitored using a timed program according to the retention times and characteristic ions for the corresponding HPLC-MS peak obtained by scanning from m/z 100–1,000 in the standard sample.
Briefly, an aliquot of plasma sample (100 μL) was spiked with 5% formic acid (10 μL) in centrifuge tube. Subsequently, hydrochloric acid (2 mol/L, 10 μL) and IS solution (960.00 ng/mL, 20 μL) were added. Then ethyl acetate/n-butyl alcohol (1:1 v/v; 1,000 μL) was used to extract the components. The samples were then homogenized by vortex mixing and centrifuged for 10 min at 14,000 rpm. After centrifugation, 800 μL of supernatant was transferred to another centrifuge tube and the sample was evaporated to dryness. The residues were dissolved in 100 μL of methanol and centrifuged for 10 min at 12,000 rpm. 50 μL of the supernatant was transferred to the vial and an aliquot of 5 μL was injected into the HPLC-MS system for analysis.
DAS 2.0 (Chinese Pharmacological Association, Shanghai, China) was used to calculate the pharmacokinetic parameters using the non-compartment model, including the area under curve (AUC), mean residence time (MRT), half-life ( t1/2z), clearance rate (CL), maximum plasma concentration (Cmax), and time (Tmax). All results are expressed as mean ± standard deviation (SD). One way analysis of variance followed by […] was used for comparison of different groups using Graph pad prism 5 software. A p-value of <0.05 was considered statistically significant.

[2] = parameters: method as in Yoshino et al., 2011; conditions: ref Yoshino et al., 2011; cited from earlier work
[3] = male, Sprague-Dawley, rat, plasma, 50 mg/kg, IQ group (oral IQ 50 mg/kg), rat plasma, labelled substance = analyte, mean of 5 rats
[4] = male, Sprague-Dawley, rat, plasma, 50 mg/kg, IQ group: oral IQ 50 mg/kg, rat plasma, mean ± SD, n = 5
[5] = male, Sprague-Dawley, rat, plasma, 50 mg/kg, QG group (oral QG 50 mg/kg), rat plasma, labelled substance = analyte, mean of 5 rats
[6] = male, Sprague-Dawley, rat, plasma, 50 mg/kg, QG group: oral QG 50 mg/kg, rat plasma, mean ± SD, n = 5
[7] = male, Sprague-Dawley, rat, plasma, 50 mg/kg, Qr group (oral Qr 50 mg/kg), rat plasma, labelled substance = analyte, mean of 5 rats
[8] = male, Sprague-Dawley, rat, plasma, 50 mg/kg, Qr group: oral Qr 50 mg/kg, rat plasma, mean ± SD, n = 5

AUC0−t ([1]; Qr group: oral Qr 50 mg/kg, rat plasma, mean ± SD, n = 5): 1,150.0 ± 454.2 mg/L*min
Shape of mean plasma concentration-time profile ([1]; after oral administration of QG 50 mg/kg): clear double peak phenomenon
concentration at 120 min ([1]; male, Sprague-Dawley, rat, plasma, oral, 50 mg/kg, IQ group (oral IQ 50 mg/kg), 120 min, individual rats NO. 1-5, read-out: Plasma concentrations): 872 ng/mL
AUC(0-t) ([1]; male, Sprague-Dawley, rat, plasma, 50 mg/kg, IQ group (oral IQ 50 mg/kg), rat plasma, labelled substance = analyte, individual rats No1-No5, read-out: AUC(0-t) (converted)): 8820 ng·h/mL
MRT last ([1]; male, Sprague-Dawley, rat, plasma, 50 mg/kg, IQ group (oral IQ 50 mg/kg), rat plasma, labelled substance = analyte, individual rats No1-No5, read-out: MRT(0-t) (converted)): 4.63 h
Tmax ([1]; male, Sprague-Dawley, rat, plasma, 50 mg/kg, IQ group (oral IQ 50 mg/kg), rat plasma, labelled substance = analyte, individual rats No1-No5): 0.5 h
AUC(0-t) ([1]; male, Sprague-Dawley, rat, plasma, 50 mg/kg, IQ group (oral IQ 50 mg/kg), rat plasma, labelled substance = analyte, mean of 5 rats, read-out: AUC(0-t) (converted)): 11200 ng·h/mL
CL/F [1, 3]: 70 mL/min/kg
Cmax [1, 3]: 3900 ng/mL
MRT last ([1]; male, Sprague-Dawley, rat, plasma, 50 mg/kg, IQ group (oral IQ 50 mg/kg), rat plasma, labelled substance = analyte, mean of 5 rats, read-out: MRT(0-t) (converted)): 5.93 h
Tmax [1, 3]: 0.5 h
half-life [1, 3]: 8.73 h
AUC(0-t) ([1]; male, Sprague-Dawley, rat, plasma, 50 mg/kg, IQ group: oral IQ 50 mg/kg, rat plasma, mean ± SD, n = 5, read-out: AUC0−t (converted)): 11200 ng·h/mL
Cmax [1, 4]: 3910 ± 1340 ng/mL
MRT last ([1]; male, Sprague-Dawley, rat, plasma, 50 mg/kg, IQ group: oral IQ 50 mg/kg, rat plasma, mean ± SD, n = 5, read-out: MRT0−t (converted)): 5.93 h
Tmax [1, 4]: 0.5 h
half-life [1, 4]: 8.72 ± 3.17 h
MRT last ([1]; male, Sprague-Dawley, rat, plasma, 50 mg/kg, QG group (oral QG 50 mg/kg), rat plasma, labelled substance = analyte, individual rats No1-No5, read-out: MRT(0-t) (converted)): 6.52 h
half-life ([1]; male, Sprague-Dawley, rat, plasma, 50 mg/kg, QG group (oral QG 50 mg/kg), rat plasma, labelled substance = analyte, individual rats No1-No5): 4.98 h
AUC(0-t) ([1]; male, Sprague-Dawley, rat, plasma, 50 mg/kg, QG group (oral QG 50 mg/kg), rat plasma, labelled substance = analyte, mean of 5 rats, read-out: AUC(0-t) (converted)): 16000 ng·h/mL
CL/F [1, 5]: 71 mL/min/kg
Cmax [1, 5]: 2040 ng/mL
MRT last ([1]; male, Sprague-Dawley, rat, plasma, 50 mg/kg, QG group (oral QG 50 mg/kg), rat plasma, labelled substance = analyte, mean of 5 rats, read-out: MRT(0-t) (converted)): 7.3 h
Tmax [1, 5]: 3.7 h
half-life [1, 5]: 6.27 h
AUC(0-t) ([1]; male, Sprague-Dawley, rat, plasma, 50 mg/kg, QG group: oral QG 50 mg/kg, rat plasma, mean ± SD, n = 5, read-out: AUC0−t (converted)): 16000 ng·h/mL
Cmax [1, 6]: 2040 ± 850 ng/mL
MRT last ([1]; male, Sprague-Dawley, rat, plasma, 50 mg/kg, QG group: oral QG 50 mg/kg, rat plasma, mean ± SD, n = 5, read-out: MRT0−t (converted)): 7.3 h
Tmax [1, 6]: 3.7 h
half-life [1, 6]: 6.27 ± 1.59 h
Tmax ([1]; male, Sprague-Dawley, rat, plasma, 50 mg/kg, Qr group (oral Qr 50 mg/kg), rat plasma, labelled substance = analyte, individual rats No1-No5): 0.5 h
AUC(0-t) ([1]; male, Sprague-Dawley, rat, plasma, 50 mg/kg, Qr group (oral Qr 50 mg/kg), rat plasma, labelled substance = analyte, mean of 5 rats, read-out: AUC(0-t) (converted)): 19200 ng·h/mL
CL/F [1, 7]: 43 mL/min/kg
Cmax [1, 7]: 6460 ng/mL
MRT last ([1]; male, Sprague-Dawley, rat, plasma, 50 mg/kg, Qr group (oral Qr 50 mg/kg), rat plasma, labelled substance = analyte, mean of 5 rats, read-out: MRT(0-t) (converted)): 5.27 h
Tmax [1, 7]: 0.7 h
half-life [1, 7]: 9.1 h
AUC(0-t) ([1]; male, Sprague-Dawley, rat, plasma, 50 mg/kg, Qr group: oral Qr 50 mg/kg, rat plasma, mean ± SD, n = 5, read-out: AUC0−t (converted)): 25800 ng·h/mL
Cmax [1, 8]: 6460 ± 2940 ng/mL
MRT last ([1]; male, Sprague-Dawley, rat, plasma, 50 mg/kg, Qr group: oral Qr 50 mg/kg, rat plasma, mean ± SD, n = 5, read-out: MRT0−t (converted)): 5.26 h
Tmax [1, 8]: 0.7 h
half-life [1, 8]: 9.1 ± 7.28 h
SMILES: O=C(O)[C@H]1O[C@@H](Oc2c(-c3ccc(O)c(O)c3)oc3cc(O)cc(O)c3c2=O)[C@H](O)[C@@H](O)[C@@H]1O [QG, Quercetin-3-O-β-D-glucuronide]
Toxicity compared with its aglycone [2]: much less toxic
